From ChEMBL document CHEMBL3860032, “Identification of noncovalent proteasome inhibitors with high selectivity for chymotrypsin-like activity by a multistep structure-based virtual screening” (Eur J Med Chem, 2016)
Activity calls are given as the source filed them. The calls are words filed in the database; no cut-off is given here. Non-standard residues stand in square brackets, D forms with d. Residues, ends and D or L forms follow the SMILES beside them. ξ: configuration not given here. *: point of attachment. ξY = NC(Cc1ccc(O)cc1)C(=O)O; Nva = CCC[CH](N)C(=O)O; Cbz = O=C(OCc1ccccc1)*; ξI = CCC(C)C(N)C(=O)O; ξL = CC(C)CC(N)C(=O)O; ξT = CC(O)C(N)C(=O)O; NHNH2 = NN*

Tests used:
[1] = Cytotoxicity against human MM1R cells assessed as growth inhibition after 24 hrs by MTT assay; type: functional, cell-based; settings: MM.1R
[2] = target: T1, Proteasome Macropain subunit MB1 (Homo sapiens, UniProt P28074); assay: Competitive inhibition of chymotrypsin-like activity of human 20S proteasome using Suc-Leu-Leu-Val-Tyr-AMC as substrate measured for 10 mins by fluorescence assay
T1 sequence (P28074 whole entry): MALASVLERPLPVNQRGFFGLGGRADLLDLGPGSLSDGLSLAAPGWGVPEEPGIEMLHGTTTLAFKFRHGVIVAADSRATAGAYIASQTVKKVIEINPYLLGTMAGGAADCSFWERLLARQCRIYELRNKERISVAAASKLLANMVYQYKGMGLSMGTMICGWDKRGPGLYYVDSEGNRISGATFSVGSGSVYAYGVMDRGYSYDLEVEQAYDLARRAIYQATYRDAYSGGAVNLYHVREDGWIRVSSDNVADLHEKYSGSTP

[3] = test system: MM1R; assay: Inhibition of proteasome activity in human MM1R cells assessed as increase in total ubiquitin levels at 20 uM after 24 hrs by Western blot method; type: cell-based
[4] = Cytotoxicity against human MM1R cells assessed as residual vitality at 100 uM after 24 hrs by MTT assay relative to control; type: functional
[5] = target: T2, Proteasome Macropain subunit MB1 (Homo sapiens) (UniProt P28074); assay: Inhibition of chymotrypsin-like activity of human 20S proteasome at 50 uM using Suc-Leu-Leu-Val-Tyr-AMC as substrate measured for 10 mins by fluorescence assay relative to control
T2 sequence (whole entry): T1 sequence (P28074 whole entry)

[6] = target: Proteasome Macropain subunit (Homo sapiens) (UniProt P49721); assay: Inhibition of trypsin-like activity of human 20S proteasome at 50 uM using Boc-Leu-Arg-Arg-AMC as substrate measured for 10 mins by fluorescence assay relative to control
[7] = target: T3, Proteasome component C5 (Homo sapiens) (UniProt P20618); assay: Inhibition of post-glutamyl peptide hydrolyzing activity of human 20S proteasome at 50 uM using Cbz-Leu-Leu-Glu-AMC as substrate measured for 10 mins by fluorescence assay relative to control
T3 sequence (whole entry): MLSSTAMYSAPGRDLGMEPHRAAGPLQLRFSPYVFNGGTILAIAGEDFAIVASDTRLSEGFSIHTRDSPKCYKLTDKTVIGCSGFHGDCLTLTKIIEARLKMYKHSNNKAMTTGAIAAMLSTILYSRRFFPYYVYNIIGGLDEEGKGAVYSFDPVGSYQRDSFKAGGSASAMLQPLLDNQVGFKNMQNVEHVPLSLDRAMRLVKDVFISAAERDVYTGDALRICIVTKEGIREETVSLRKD

[8] = target: T2, Proteasome Macropain subunit MB1 (Homo sapiens); assay: Time-dependent inhibition of chymotrypsin-like activity of human 20S proteasome using Suc-Leu-Leu-Val-Tyr-AMC as substrate at 10 to 100 uM by fluorescence assay
[9] = test system: MM1R; assay: Inhibition of proteasome activity in human MM1R cells assessed as increase in total ubiquitin levels at 10 uM after 24 hrs by Western blot method; type: cell-based

Proteasome Macropain subunit (Homo sapiens), sequence (P49721 whole entry): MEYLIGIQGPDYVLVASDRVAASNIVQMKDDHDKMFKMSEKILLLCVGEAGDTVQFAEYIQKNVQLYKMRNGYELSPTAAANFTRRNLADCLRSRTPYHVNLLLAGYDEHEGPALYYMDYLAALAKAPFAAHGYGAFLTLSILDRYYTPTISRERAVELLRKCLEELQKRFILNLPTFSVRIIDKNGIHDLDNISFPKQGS

| inhibition [5] [%] | inhibition [6] [%] | Compound | also measured |
| --- | --- | --- | --- |
| 49 | – | CC(C)(C)OC(=O)Cn1ncn(NC(=O)Cc2ccccc2)c1=O | – |
| 59 | – | CC(C)(C)Oc1ccc(C[C@@H](NC(=O)OCC2c3ccccc3-c3ccccc32)C(=O)O)cc1 | – |
| 49 | – | CCOC(=O)C(NC(=O)Cc1ccccc1)C(=O)OCC | – |
| 46 | – | COC(=O)C(CC(C)C)NC(=O)C(Cc1ccc(O)cc1)N(C(=O)OCc1ccccc1)C(=O)OCc1ccccc1 (centres undefined) | – |
| 21 | 3 | NC(=O)C(NC(=O)c1ccccc1)SCc1ccccc1 (centres undefined) | – |
| 54 | – | NC(Cc1c[nH]c2ccccc12)C(=O)OCc1ccccc1 (centres undefined) | – |
| 54 | 1 | O=C(O)c1ccc(NCn2c(=S)[nH]c3ccccc32)cc1O | – |
| 24 | – | COC(=O)[C@H](C)NC(=O)[C@H](Cc1ccccc1)NC(=O)[C@H](C)NC(=O)OCc1ccccc1 (Cbz-Ala-Phe-Ala-OMe) | inhibition [7]: 24% |
| 22 | – | COC(=O)[C@H](C)NC(=O)[C@H](CC(C)C)NC(=O)[C@H](Cc1ccccc1)NC(=O)OCc1ccccc1 (Cbz-Phe-Leu-Ala-OMe) | – |
| – | 18 | COC(=O)[C@H](Cc1ccccc1)NC(=O)[C@H](Cc1ccccc1)NC(=O)[C@H](Cc1ccccc1)NC(=O)OCc1ccccc1 (Cbz-Phe-Phe-Phe-OMe) | – |
| – | 29 | CC(C)CC(NC(=O)C(CO)NC(=O)OCc1ccccc1)C(=O)NC(Cc1ccc(O)cc1)C(N)=O (stereo not drawn) (Cbz-Ser-Leu-Tyr-NH2; configuration not given here) | IC50 [1]: 28.5 µM; Ki [2]: 2.18 µM; increase in total ubiquitin levels (qualitative) [3]: Active; Activity [4]: 4% |
| – | 26 | CC(C)C[C@H](NC(=O)[C@H](CO)NC(=O)OCc1ccccc1)C(=O)N[C@@H](Cc1ccc(O)cc1)C(=O)NN (Cbz-Ser-Leu-Tyr-NHNH2) | IC50 [1]: 29.8 µM; Ki [2]: 11 µM; inhibition [7]: 23%; TDI [8]: Active; Activity [4]: 4% |
| – | 22 | COC(=O)[C@H](Cc1ccc(O)cc1)NC(=O)[C@H](CC(C)C)NC(=O)[C@H](CO)NC(=O)OCc1ccccc1 (Cbz-Ser-Leu-Tyr-OMe) | IC50 [1]: 22.3 µM; Ki [2]: 4.7 µM; increase in total ubiquitin levels (qualitative) [3]: Active; TDI [8]: Active; Activity [4]: 4% |
| 15 | 32 | COC(=O)[C@H](CC(C)C)NC(=O)[C@H](CC(N)=O)NC(=O)[C@@H](NC(=O)OCc1ccccc1)C(C)C (Cbz-Val-Asn-Leu-OMe) | – |
| 18 | 33 | CCC[C@H](NC(=O)OCc1ccccc1)C(=O)N[C@@H](Cc1ccc(O)cc1)C(N)=O (Cbz-[Nva]-Tyr-NH2) | – |

Further lines, the compound ahead of its results:

| Compound | inhibition [5] [%] | inhibition [6] [%] | also measured |
| --- | --- | --- | --- |
| CN/C(=N\CCSCc1ccc2ccccc2n1)NS(=O)(=O)c1ccccc1 | – | – | IC50 [1]: 18.3 µM; Ki [2]: 2.12 µM; increase in total ubiquitin levels (qualitative) [3]: Active; Activity [4]: 4% |
| CC(=O)NC(Cc1ccccc1)C(=O)Nc1ccc(C)cc1 (centres undefined) | 43 | – | – |
| CC(=O)NC(Cc1ccccc1)C(=O)Nc1ccc(S(N)(=O)=O)cc1 (centres undefined) | 34 | – | – |
| CC(C)C[C@H](NC(=O)c1cnc2ccccc2n1)C(=O)O | 34 | – | – |
| CC(C)[C@H](NC(=O)[C@H](Cc1ccc(O)cc1)NC(=O)OCc1ccccc1)C(=O)O | 21 | – | – |
| CC(Cc1ccccc1)NC(=O)C(O)C(O)C(O)C(O)CCO (centres undefined) | 36 | 6 | – |
| CC(NC(=O)OCc1ccccc1)C(=O)NC(Cc1ccc(O)cc1)C(=O)OCc1ccccc1 (centres undefined) | 22 | – | – |
| CCOC(=O)c1ccc(NC(=O)CSc2nc3ccccc3o2)cc1 | 13 | – | – |
| CNC(Cc1ccc(OCc2ccccc2)cc1)C(=O)NC(CO)CC(C)C (centres undefined) | 33 | – | – |
| C[C@H](NC(=O)OCc1ccccc1)C(=O)N[C@@H](Cc1ccccc1)C(N)=O | 24 | – | – |
| NC(=O)C[C@H](NC(=O)OCC1c2ccccc2-c2ccccc21)C(=O)O | 33 | – | – |
| NC(CCC(=O)OCc1ccccc1)C(=O)OCc1ccccc1 (centres undefined) | 34 | – | – |
| NS(=O)(=O)c1ccc(NC(=O)/C=C/c2ccccc2)cc1 | 33 | 11 | – |
| O=C(CC(=O)c1cccnc1)NC(=O)c1ccccc1 | 43 | – | – |
| O=C(CNC(=O)c1ccccc1)OC(C(=O)O)c1ccc(F)cc1 (centres undefined) | 12 | – | – |
| O=C(NCc1ccccc1)C(O)C(O)C(O)C(O)CO (centres undefined) | 15 | 2 | – |

| Compound | inhibition [5] [%] | inhibition [6] [%] | also measured |
| --- | --- | --- | --- |
| O=C(Nc1ccc2nc(O)cc(C(=O)O)c2c1)Oc1ccccc1 | 48 | 74 | – |
| O=C(Nc1ccccc1C(=O)NCC1CC1)c1cccs1 | 60 | – | – |
| O=C(O)CCCC(=O)NC1CC2c3ccccc3C1c1ccccc12 (centres undefined) | 31 | 7 | – |
| O=C(O)[C@H](Cc1ccc(O)cc1)NS(=O)(=O)Cc1ccccc1 | 60 | – | – |
| OCC(Oc1ccccc1)C(O)C(O)C(CO)Oc1ccccc1 (centres undefined) | 5 | – | – |
| CC(O)C(C=O)NC(=O)CNC(=O)OCc1ccccc1 (stereo not drawn) (Cbz-Gly-[ξT]-aldehyde) | 23 | – | – |
| COC(=O)[C@H](CO)NC(=O)[C@H](CC(C)C)NC(=O)[C@H](CC(C)C)NC(=O)OCc1ccccc1 (Cbz-Leu-Leu-Ser-OMe) | – | – | IC50 [1]: 16.2 µM; Ki [2]: 0.42 µM; increase in total ubiquitin levels (qualitative) [3]: Active; TDI [8]: Active; Activity [4]: 4% |
| CC(C)C[C@H](NC(=O)OCc1ccccc1)C(=O)N[C@@H](Cc1ccc(O)cc1)C(N)=O (Cbz-Leu-Tyr-NH2) | 17 | – | – |
| COC(=O)[C@H](CC(C)C)NC(=O)[C@H](Cc1ccccc1)NC(=O)[C@H](CO)NC(=O)OCc1ccccc1 (Cbz-Ser-Phe-Leu-OMe) | – | – | IC50 [1]: 17.6 µM; Ki [2]: 10.3 µM; increase in total ubiquitin levels (qualitative) [3]: Active; TDI [8]: Active; Activity [4]: 4% |
| CC(C)[C@H](NC(=O)[C@H](Cc1ccc(O)cc1)NC(=O)OCc1ccccc1)C(N)=O (Cbz-Tyr-Val-NH2) | 11 | 23 | – |
| CCCC(NC(=O)OCc1ccccc1)C(=O)NC(Cc1ccc(O)cc1)C(N)=O (centres undefined) (Cbz-[Nva]-Tyr-NH2; configuration not given here) | 17 | – | – |
| CCC(C)C(NC(=O)OCc1ccccc1)C(=O)N[C@@H](Cc1ccc(O)cc1)C(=O)O (some centres undefined) (Cbz-[ξI]-Tyr-OH) | 34 | 11 | – |
| CC(C)CC(NC(=O)OCc1ccccc1)C(=O)N[C@@H](Cc1ccc(O)cc1)C(=O)O (some centres undefined) (Cbz-[ξL]-Tyr-OH) | 8 | – | – |
| O=C(NC(Cc1ccc(O)cc1)C(=O)N[C@@H](Cc1ccccc1)C(=O)O)OCc1ccccc1 (some centres undefined) (Cbz-[ξY]-Phe-OH) | 7 | – | – |
| CC(C)C[C@@H](C=O)NC(=O)[C@H](CC(C)C)NC(=O)[C@H](CC(C)C)NC(=O)OCc1ccccc1 [MG-132] (Cbz-Leu-Leu-Leu-aldehyde) | – | – | IC50 [1]: 12.3 µM; inhibition [9]: Active |
